The test system of series [1] is T. b. brucei Lister 427. Description: SYBR Green viability assay with T. brucei. Format: cell-based. Conditions: Trypanosoma brucei, 72 h, read-out: T. b. brucei Lister 427 EC50 (nM) ± SD.
A short description of series [2]: HEK-293 counter-screen assay. The class given is cell-based. The settings on record: human, HEK-293 cells. (A counterscreen serves to expose hits that act by an unwanted route or on another target.)
The test system of series [3] is T. b. brucei Lister 427. Description: Time-kill assays. Format: cell-based. The settings on record: Trypanosoma brucei, 12 h, read-out: parasite viability.
For series [4], the system named is T. b. brucei Lister 427. The series can be described thus: Mouse model of T. brucei infection. Format: in vivo, Trypanosoma brucei brucei.

Structures are written as SMILES.

The record followed here is article PMC10028969 (bioRxiv, 2023).

On to `N=C(N)c1ccc(OCCCCCOc2ccc(C(=N)N)cc2)cc1` [Pentamidine, pentamidine], for which the EC50 (in general, the concentration needed to bring the measured effect to its halfway point) with T. b. brucei Lister 427 [1] turned out to be 69.6 ± 35.5 nM. Besides, the CC50 (in general, the concentration giving 50% cytotoxicity) at 48 h in series [2] is above 4000 nM. Besides, the viability (as a rule, a read-out of living cells in per cent, often relative to untreated cells) at 4 µM in the series on T. b. brucei Lister 427 [3] was found to be 52.8%. Moreover, the mouse survival in the series with T. b. brucei Lister 427 [4] (4 mg/kg i.p. on day 2, end of the study, without parasite recrudescence) was at least 15 day post-infection. Also, in the series with T. b. brucei Lister 427 [4] (single i.p. dose 4 mg/kg on day 2 post-infection, BALB/c female mice), the “parasitemia within 24 h of administration” value was < 2.5 × 10^5 parasites/ml.
